Our source for the IC50, Retention_time and Activity values is ChEMBL document CHEMBL3407421, “Design, synthesis, X-ray crystallographic analysis, and biological evaluation of thiazole derivatives as potent and selective inhibitors of human dihydroorotate dehydrogenase” (J Med Chem, 2015).

Molecules are shown by their SMILES.

The target in data set [1] is T1, Dihydroorotate dehydrogenase (Plasmodium falciparum, UniProt Q54A96).
T1 sequence (Q54A96 whole entry): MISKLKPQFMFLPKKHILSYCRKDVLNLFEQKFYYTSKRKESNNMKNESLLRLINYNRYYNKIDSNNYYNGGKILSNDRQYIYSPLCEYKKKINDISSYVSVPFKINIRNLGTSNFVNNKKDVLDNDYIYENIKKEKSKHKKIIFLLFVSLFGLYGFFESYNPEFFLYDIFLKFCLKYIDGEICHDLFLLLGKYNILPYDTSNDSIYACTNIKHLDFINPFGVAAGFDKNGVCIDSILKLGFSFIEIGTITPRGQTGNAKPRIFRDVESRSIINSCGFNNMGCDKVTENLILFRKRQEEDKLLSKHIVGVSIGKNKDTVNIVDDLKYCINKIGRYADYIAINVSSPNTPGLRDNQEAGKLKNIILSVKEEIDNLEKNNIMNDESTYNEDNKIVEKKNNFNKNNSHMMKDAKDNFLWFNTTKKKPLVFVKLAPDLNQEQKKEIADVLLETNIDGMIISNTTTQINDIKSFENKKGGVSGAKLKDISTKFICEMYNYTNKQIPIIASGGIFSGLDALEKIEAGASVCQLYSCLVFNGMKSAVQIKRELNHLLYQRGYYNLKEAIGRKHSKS
Briefly: Inhibition of Plasmodium falciparum DHODH using dihydroorotate substrate by DCIP assay.

A short description of data set [2]: Retention time of the compound. In kind it is physicochemical.
In data set [3] the target is Dihydroorotate dehydrogenase (quinone), mitochondrial (Homo sapiens, UniProt Q02127).
Description: Inhibition of human DHODH using dihydroorotate substrate by DCIP assay
Data set [4] deals with Rattus norvegicus. Briefly: Toxicity in ip dosed bovine type-2 collagen-induced Wistar rat arthritic model assessed as change in body weight administered as qd for 28 days starting day after immunization. In kind it is organism-based. As to conditions: in vivo, 672 h.

Dihydroorotate dehydrogenase (quinone), mitochondrial, sequence (Q02127 whole entry): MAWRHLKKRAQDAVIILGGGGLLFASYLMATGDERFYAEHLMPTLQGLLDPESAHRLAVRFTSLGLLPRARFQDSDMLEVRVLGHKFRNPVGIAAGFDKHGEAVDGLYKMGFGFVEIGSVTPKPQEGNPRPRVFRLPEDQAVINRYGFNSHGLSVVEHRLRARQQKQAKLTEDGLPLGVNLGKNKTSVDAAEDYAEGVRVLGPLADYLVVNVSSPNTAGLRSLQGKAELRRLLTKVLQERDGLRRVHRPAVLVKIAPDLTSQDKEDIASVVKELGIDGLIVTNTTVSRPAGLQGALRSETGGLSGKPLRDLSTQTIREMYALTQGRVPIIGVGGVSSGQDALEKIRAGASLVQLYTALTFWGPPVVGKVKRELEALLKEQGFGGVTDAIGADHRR

For `CCOC(=O)c1sc(Nc2ccc3c(c2)CCCC3)nc1-c1ccccc1`, the IC50 (commonly the concentration that inhibits the measured activity by half) in data set [1] is above 10 µM. In data set [2], this molecule gave a Retention_time of 11.36 min.

Consider `CC(=O)c1sc(Nc2ccc(Br)cc2)nc1C`, for which the IC50 in data set [1] and in data set [3] was above 10 µM each time. The molecule further showed a Retention_time in data set [2] of 13.52 min.

In turn, `CCOC(=O)c1sc(Nc2cc(Cl)cc(Cl)c2)nc1-c1ccccc1` gave a half-maximal inhibitory concentration (IC50) in data set [1] above 10 µM. For the same molecule, the Retention_time in data set [2] is reported as 11.83 min.

`CCOC(=O)c1sc(Nc2ccc3ccccc3c2)nc1C`: the 50% inhibitory concentration (IC50) in data set [1] was above 10 µM. Also, the Retention_time in data set [2] is reported as 9.01 min.

Regarding `CCOC(=O)c1sc(Nc2ccc(C)c(Cl)c2)nc1C`, the IC50 in data set [1] is above 10 µM. Besides, the Retention_time in data set [2] was 18.44 min.

As to `CC(=O)c1sc(Nc2ccc(Cl)c(C(F)(F)F)c2)nc1C`, the 50% inhibitory concentration (IC50) in data set [1] stood at 4.27 µM; in data set [3], 2.35 µM. Besides, the Retention_time in data set [2] is on record as 16.17 min.

With `CCOC(=O)c1sc(Nc2ccc(C)c(C)c2)nc1C(C)(C)C`, the half-maximal inhibitory concentration (IC50) in data set [1] was above 10 µM. Besides, the Retention_time in data set [2] is recorded as 12.16 min.

Regarding `CCOC(=O)c1sc(Nc2ccc(C)c(C)c2)nc1C1CC1`, the IC50 in data set [1] is above 10 µM. The same molecule gave a Retention_time in data set [2] of 10.18 min.

In data set [1], `CCOC(=O)c1sc(Nc2ccc(Br)c(C(F)(F)F)c2)nc1-c1ccccc1` registered an IC50 above 10 µM. In data set [2], this molecule showed a Retention_time of 11.33 min.

With `CC(=O)c1sc(Nc2ccc3cc4ccccc4cc3c2)nc1C`, the IC50 in data set [1] and in data set [3] was above 10 µM in each case. For the same molecule, in data set [2], the Retention_time is 16.95 min.

For the molecule `CCOC(=O)c1sc(Nc2ccc(C)c(C)c2)nc1C`, in data set [1], the IC50 is above 10 µM. Also, in data set [2], the Retention_time is 16.56 min.

`CCOC(=O)c1sc(Nc2ccc(Cl)cc2)nc1-c1ccccc1`: the IC50 in data set [1] was above 10 µM. For the same molecule, in data set [2], the Retention_time amounted to 9.69 min.

On to `CCOC(=O)c1sc(Nc2ccc(-c3cccc(OC)c3)cc2)nc1-c1ccccc1`, for which the half-maximal inhibitory concentration (IC50) in data set [1] and in data set [3] was above 10 µM throughout. In data set [2], this molecule showed a Retention_time of 10.45 min.

Regarding `CCOC(=O)c1sc(Nc2ccc3ccccc3c2)nc1-c1ccccc1`, in data set [1], the 50% inhibitory concentration (IC50) was above 10 µM.

For the molecule `CC(=O)c1sc(Nc2ccc(C)c(F)c2)nc1C`, the IC50 in data set [1] and in data set [3] was above 10 µM each time. In data set [2], this molecule yielded a Retention_time of 5.82 min.

Consider `CCOC(=O)c1sc(Nc2ccc(C)c(F)c2)nc1C1CC1`, for which the IC50 in data set [1] is above 10 µM. The Retention_time in data set [2] was 9.96 min.

For `CC(=O)c1sc(Nc2ccc(Br)c(C(F)(F)F)c2)nc1C`, the IC50 is above 10 µM in data set [1] and 1.93 µM in data set [3]. Moreover, the Retention_time in data set [2] is listed as 16.48 min.

For `CCOC(=O)c1sc(Nc2ccc3cc4ccccc4cc3c2)nc1-c1ccccc1`, the IC50 in data set [1] was above 10 µM. In data set [2], this molecule had a Retention_time of 12.09 min.

For `CCOC(=O)c1sc(Nc2ccc(C)c(C)c2)nc1NC(=O)C1CC1`, the 50% inhibitory concentration (IC50) in data set [1] and in data set [3] was above 10 µM in each case. This molecule had a Retention_time in data set [2] of 7.61 min.

In data set [1], `CCOC(=O)c1sc(Nc2ccc(Cl)c(Cl)c2)nc1-c1ccccc1` had an IC50 above 10 µM. The molecule further had a Retention_time in data set [2] of 11.11 min.

On to `CC(=O)c1sc(Nc2ccc(C)c(Cl)c2)nc1C`, for which the half-maximal inhibitory concentration (IC50) was 0.63 µM in data set [1] and 3.94 µM in data set [3]. The Retention_time in data set [2] is on record as 14.38 min.

With `CCOC(=O)c1sc(Nc2ccc(Br)cc2C)nc1-c1ccccc1`, the 50% inhibitory concentration (IC50) in data set [1] and in data set [3] was above 10 µM each time. The molecule further showed a Retention_time in data set [2] of 10.27 min.

On to `CCOC(=O)c1sc(Nc2ccc(-c3ccccc3)cc2)nc1-c1ccccc1`, for which the concentration for half-maximal inhibition (IC50) in data set [1] and in data set [3] was above 10 µM throughout. For the same molecule, the Retention_time in data set [2] was determined as 10.81 min.

In data set [1], `CCOC(=O)c1sc(Nc2ccc(C)c(C)c2)nc1N` registered a 50% inhibitory concentration (IC50) above 10 µM. In data set [2], the Retention_time was determined as 9.57 min.

In data set [1], `CCOC(=O)c1sc(Nc2ccc(Cl)c(C(F)(F)F)c2)nc1-c1ccccc1` had a half-inhibitory concentration (IC50) above 10 µM. In addition, in data set [2], the Retention_time is on record as 11.06 min.

As for `CCOC(=O)c1sc(Nc2ccc(-c3ccccc3)cc2F)nc1-c1ccccc1`, the IC50 in data set [1] and in data set [3] was above 10 µM each time. The Retention_time in data set [2] came out at 11.33 min.

`CCOC(=O)c1sc(Nc2ccc(C)c(C)c2)nc1NC(=O)c1ccccc1` registered an IC50 in data set [1] above 10 µM. The Retention_time in data set [2] is 7.51 min.

Consider `CC(=O)c1sc(Nc2ccc(C)c(C)c2)nc1C`, for which the IC50 in data set [1] was found to be 1.49 µM; in data set [3] it was 3.85 µM. In data set [2], this molecule returned a Retention_time of 12.41 min.

For `CN(Cc1cnc2nc(N)nc(N)c2n1)c1ccc(C(=O)N[C@@H](CCC(=O)O)C(=O)O)cc1` [METHOTREXATE], the Activity result in data set [4] is given as “Non-toxic”.

Molecule `CCOC(=O)c1sc(Nc2ccc(C)c(C)c2)nc1-c1ccccc1` returned an IC50 in data set [1] above 10 µM. This molecule registered a Retention_time in data set [2] of 9.84 min.

As for `CCOC(=O)c1sc(Nc2ccc(OCc3ccccc3)c(Cl)c2)nc1-c1ccccc1`, the half-inhibitory concentration (IC50) in data set [1] and in data set [3] was above 10 µM in each case. This molecule gave a Retention_time in data set [2] of 10.92 min.

On to `CC(=O)c1sc(Nc2ccc3ccccc3c2)nc1C`, for which the figures for the IC50 in data set [1] and in data set [3] were 0.871 µM and 0.562 µM, respectively. Also, the Retention_time in data set [2] stood at 13.39 min.

In data set [1], `CCOC(=O)c1sc(Nc2c(F)cc(-c3cccc(OC)c3)cc2F)nc1-c1ccccc1` displayed a 50% inhibitory concentration (IC50) above 10 µM. The Retention_time in data set [2] is 9.51 min.

Take `CCOC(=O)c1sc(Nc2ccc(C)c(F)c2)nc1-c1ccccc1`: the IC50 in data set [1] was above 10 µM. The molecule further yielded a Retention_time in data set [2] of 9.56 min.

As for `CCOC(=O)c1sc(Nc2ccc(Cl)c(C(F)(F)F)c2)nc1NC(=O)C1CC1`, the IC50 in data set [1] is above 10 µM. Besides, in data set [2], the Retention_time was 7.75 min.

As to `CCOC(=O)c1sc(Nc2ccc(C(F)(F)F)cc2)nc1-c1ccccc1`, the half-maximal inhibitory concentration (IC50) in data set [1] was above 10 µM. The same molecule returned a Retention_time in data set [2] of 9.86 min.

For `CCOC(=O)c1sc(Nc2ccc(C)c(Cl)c2)nc1-c1ccccc1`, the concentration for half-maximal inhibition (IC50) in data set [1] was above 10 µM. Also, the Retention_time in data set [2] worked out at 10.7 min.

In data set [1], `CCOC(=O)c1sc(Nc2ccc3c(c2)CCC3)nc1-c1ccccc1` returned an IC50 above 10 µM. Moreover, the Activity result in data set [4] was “Non-toxic”. Further, the Retention_time in data set [2] worked out at 10.42 min.

On to `CCOC(=O)c1sc(Nc2ccc(-c3cccc(OC)c3)cc2F)nc1-c1ccccc1`, for which the IC50 in data set [1] and in data set [3] was above 10 µM throughout. This molecule had a Retention_time in data set [2] of 10.96 min.

`CCOC(=O)c1sc(Nc2ccc(OC)cc2)nc1-c1ccccc1` displayed an IC50 in data set [1] above 10 µM. For the same molecule, in data set [2], the Retention_time worked out at 7.54 min.

`CCOC(=O)c1sc(Nc2ccc(Cl)c(C(F)(F)F)c2)nc1N`: the IC50 in data set [1] and in data set [3] was above 10 µM throughout. Besides, in data set [2], the Retention_time is given as 7.1 min.

Consider `CCOC(=O)c1sc(Nc2ccc(C)c(Cl)c2)nc1C(C)(C)C`, for which the IC50 in data set [1] was above 10 µM. The Retention_time in data set [2] is given as 13.12 min.

`CCOC(=O)c1sc(Nc2ccc(C)c(F)c2)nc1C(C)(C)C` displayed an IC50 in data set [1] above 10 µM. In data set [2], this molecule registered a Retention_time of 11.92 min.

As for `CC(=O)c1sc(Nc2ccccc2)nc1C`, the IC50 in data set [1] and in data set [3] was above 10 µM each time. Further, the Retention_time in data set [2] is on record as 9.94 min.

As for `CCOC(=O)c1sc(Nc2ccc(Oc3ccccc3)c(Cl)c2)nc1-c1ccccc1`, the IC50 in data set [1] and in data set [3] was above 10 µM each time. In addition, the Retention_time in data set [2] turned out to be 11.24 min.

In data set [1], `CCOC(=O)c1sc(Nc2ccc(C(C)(C)C)cc2)nc1-c1ccccc1` came in with an IC50 above 10 µM. The same molecule gave a Retention_time in data set [2] of 21.11 min.

Turning to `CCOC(=O)c1sc(Nc2ccc(C)c(Cl)c2)nc1C1CC1`, in data set [1], the concentration for half-maximal inhibition (IC50) was above 10 µM. This molecule came in with a Retention_time in data set [2] of 11.22 min.

For the molecule `CCOC(=O)c1sc(Nc2ccc(C)c(F)c2)nc1C`, the IC50 in data set [1] was above 10 µM. In addition, in data set [2], the Retention_time was 8.14 min.

Take `CCOC(=O)c1sc(Nc2ccc(OCc3c(F)cccc3Cl)c(Cl)c2)nc1-c1ccccc1`: the IC50 in data set [1] and in data set [3] was above 10 µM each time. In addition, the Retention_time in data set [2] is listed as 9.95 min.

Molecule `CCOC(=O)c1sc(Nc2ccccc2)nc1-c1ccccc1` had a half-maximal inhibitory concentration (IC50) in data set [1] above 10 µM. Further, in data set [2], the Retention_time stood at 7.96 min.

For the molecule `CCOC(=O)c1sc(Nc2ccc(Cl)c(C(F)(F)F)c2)nc1NC(=O)c1ccccc1`, the IC50 in data set [1] and in data set [3] was above 10 µM throughout. This molecule also showed a Retention_time in data set [2] of 8.06 min.

Regarding `CCOC(=O)c1sc(Nc2ccc(Br)cc2)nc1C`, in data set [1], half-maximal inhibition (IC50) required 2.45 µM. Also, the Retention_time in data set [2] is 17.56 min.

As to `CCOC(=O)c1sc(Nc2ccc3c(c2)OCO3)nc1-c1ccccc1`, the IC50 in data set [1] was above 10 µM. This molecule registered a Retention_time in data set [2] of 7.28 min.

Consider `CC(=O)c1sc(Nc2ccc(C(C)(C)C)cc2)nc1C`, for which the values for the IC50 in data set [1] and in data set [3] were above 10 µM and 3.65 µM, respectively. The Retention_time in data set [2] is 14.61 min.
